Experimental data: patent US8883798B2, “Pyrimidine compounds inhibiting the formation of nitric oxide and prostaglandin E2, method of production thereof and use thereof” (Ustav Organicke Chemie a Biochemie Akademie Ved CR, V.V.I., priority 2011, dated 2014)

Key:
[1] = test system: production of nitric oxide (NO); test: Production of nitric oxide (NO) in cultures of mouse peritoneal cells stimulated with IFN-γ plus LPS (Griess reagent); assay type: cell-based, mice; conditions: Table 3A; substance 50 μmol·l^−1; IFN-g plus LPS; 24 h
Method in brief: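 C57BL/6 mouse peritoneal cells (2×10^6/mL) stimulated with IFN-γ (5000 pg/mL) plus LPS (100 pg/mL), compounds at 50 μmol·l^−1. Nitrite measured by Griess reagent after 24 h, expressed as % of stimulated control (set 100%); IC50 is concentration reducing NO by 50%.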

[2] = test system: acute experimental colitis in mice; test: Acute experimental colitis induced in mice by dextran sulphate sodium; assay type: in vivo, mice BALB/c; conditions: for Therapeutical effect compared with 6-TG: acute colitis, approximately 10 mg/kg; for Course of induced acute experimental colitis: approximately 10 mg/kg by stomach probe for seven days; for Protection from severe forms of acute experimental colitis: daily oral doses of 2.5 mg/kg or 10 mg/kg
Procedure: The compounds tested were dissolved in 0.5% methylcellulose (MC, Bio-test s.r.o., Konárovice, Czech Republic; Lot: 050510BT) to acquire a final concentration of 2 mg/ml (ca 10 mg/kg). To achieve homogeneity of the suspensions, the substances in MC were disintegrated by ultrasound (sonicated; 20 s, λ=0.1 μm). Fresh suspensions were prepared every day.
The female mice of strain BALB/c at 13 weeks old were acquired from the breeding of the Institute of Physiology of the ASCR, v.v.i. Colitis was induced in them by administering a 3% solution (weight/volume) of sodium dextran sulphate (DSS, mol. weight 36-50 kDa; MP Biomedicals, Inc.) in drinking water for a period of seven days [Gastroenterology 98, 694-7, 1990]. Beginning on Day 1 of DSS administration, also a dose of the tested compound, dissolved in 100 μl MC (only a dose of methylcellulose in the case of the control animals), was administered for seven days by stomach probe.
The severity of the colitis was assessed on the last day of the experiment by scoring the clinical activity, histological parameters and measuring the length of the intestine.
The entire intestine was removed post mortem, without tightening it was placed on a ruler and measured. Shortening of the intestine is an indirect marker of infection (the shorter the intestine, the more serious the infection).
The points of the clinical activity are the sum of the individual assessments from 0 to 4 and were calculated using the following parameters: reduction of body weight (none=0 points, reduction by 1 to 5%=1 point, by 5-10%=2 points, by 10-20%=3 points, by 20%=4 points), consistency of the feces (solid=0 points; not solid, but not sticking to the anus=2 points; liquid, sticking to the anus=4 points) and bleeding (none=0 points, positive Guajak reaction=2 body, strong bleeding=4 points). This point assessment was totaled and divided by three to acquire the overall index of the activity of the disease, which was in a range from 0.0 (a healthy individual) to 4.0 (maximum activity of colitis) as described by Cooper et al. [Lab. Invest. 69, 238-49, 1993].
The descending colon was fixed in a buffered solution of 4% formaldehyde and poured into paraffin for the histological assessment. The sections were stained in hematoxylin/eosin. For every sample, four cross cuts were tested, which had been separated from one another by sections of a length of […]. The histological assessment was made for every cut by two pathologists in blind order, which provided an assessment combining the level of the infiltration of leukocytes into the layer of the lamia propria and into the submucosa along with the extent of the damage of the mucous membrane (see Table 1). The overall assessment is the average of the evaluation of the four sections, which was in a range from 0 (no signs of colitis) to 3 (severe colitis).
The differences in the intestinal length, DAI (disease activity index) and histological assessment of multiple groups were compared with the control group (MC/DSS) using a one-way analysis of the differences with a Dunnett test of multiple comparison. The differences were considered as statistically significant at P<0.05.
Compounds 28 and 51 were suspended in 0.5% methylcellulose (MC, Bio-test s.r.o., Konárovice, Czech Republic, Lot: 050510BT) to a concentration of 2 mg/ml (approximately 10 mg/kg). Sterile 0.5% MC was used as a placebo and a dose of 40 mg/each administration of 6-thioguanine (6TG) in 0.5% MC as a positive control. The administered suspensions were prepared freshly […].

peritoneal cells of mice = test: Cell viability of mouse peritoneal cells (WST-1 kit); assay type: cell-based; conditions: Table 3A, substance 50 μmol·l^−1, 24 h
Method in brief: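 C57BL/6 mouse peritoneal cells (1×10^6/mL) cultured 24 h with compounds at 50 μmol·l^−1. Viability read with WST-1 tetrazolium salt and expressed as percent of untreated control cells (100%).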

SMILES	Production of nitric oxide in % of the controls [1]	Therapeutical effect compared with 6-TG [2]	Course of induced acute experimental colitis [2]	Protection from severe forms of acute experimental colitis [2]	Cell viability in % of the controls (peritoneal cells of mice)
CCCCc1c(Cl)nc(N)nc1Cl [Substance 28]	53.23 ± 5.79 % of the controls	minimally equal with the effect of 6-TG	statistically significant reduction of the course of the induced (severe form) experimental colitis	protect mice from the severe forms of acute experimental colitis	100.42 ± 5.77 % of the controls
CCCCc1c(Cl)nc(NC=O)nc1Cl [Substance 51]	8.37 ± 2.77 % of the controls	minimally equal with the effect of 6-TG	statistically significant reduction of the course of the induced (severe form) experimental colitis	protect mice from the severe forms of acute experimental colitis	92.15 ± 9.90 % of the controls
